We go through 16 compounds from the C3SDB collision cross section collection.

For this data set the following is noted: instrument: DT, single field, calibrated with ESI Low Concentration Tuning Mix (Agilent).

Where “and” joins values, the source holds several entries; their conditions need not be identical. Equal entries are not always repeated.

Take `Cn1cncc1C[C@H](NC(=O)CCN)C(=O)O` [ANSERINE]: the “collision cross section (N2)” value worked out at 153.8 Å² ([M+H]+), 156.2 Å² ([M+Na]+) and 154.8 Å² ([M-H]-).
As for `OC[C@@H](O)C(O)[C@H](O)CO` [ARABITOL], the “collision cross section (N2)” value worked out at 135.8 Å² ([M+Na]+) and 124.9 Å² ([M-H]-).
Consider `NC(N)=NCCC[C@H](N)C(=O)O` [ARGININE], for which the “collision cross section (N2)” value is, setting by setting: ([M+H]+) 136.6 Å²; ([M+Na]+) 148.6 Å²; ([M-H]-) 136.4 Å².
On to `O=C(O)CCCCCCCC(=O)O` [AZELATE], for which the “collision cross section (N2)” value is, setting by setting: ([M+Na-2H]-) 141.9 Å²; ([M+Na]+) 148.4 Å².
Regarding `NC(=O)c1ccc[n+]([C@@H]2O[C@H](COP(=O)([O-])OP(=O)(O)OC[C@H]3O[C@@H](n4cnc5c(N)ncnc54)[C@H](O)[C@@H]3O)[C@@H](O)[C@H]2O)c1` [BETA-NICOTINAMIDE ADENINE DINUCLEOTIDE], the “collision cross section (N2)” value reads like this: ([M+H]+) 227.5 Å²; ([M+Na-2H]-) 230.8 Å²; ([M+Na]+) 222.7 Å²; ([M-H]-) 223.8 Å².
On to `NCCC(=O)N[C@@H](Cc1cnc[nH]1)C(=O)O` [CARNOSINE], for which the “collision cross section (N2)” value by setting is: ([M+H]+) 150.8 Å²; ([M+Na]+) 154.7 Å²; ([M-H]-) 152.1 Å².
As for `OC[C@H]1O[C@@H](O[C@H]2[C@H](O)[C@@H](O)[C@H](O)O[C@@H]2CO)[C@H](O)[C@@H](O)[C@@H]1O` [CELLOBIOSE], the “collision cross section (N2)” value ([M+K]+) turned out to be 180.9 Å², the “collision cross section (N2)” value ([M+Na]+) came out at 178.7 Å² and the “collision cross section (N2)” value ([M-H]-) is listed as 179.7 Å².
In the case of `O=C(O)CC(O)(CC(=O)O)C(=O)O` [CITRATE], the “collision cross section (N2)” value runs as follows: ([M+Na]+) 143.1 Å²; ([M-H]-) 127.1 Å².
In the case of `NC(=O)NCCC[C@H](N)C(=O)O` [CITRULLINE], the “collision cross section (N2)” value by setting is: ([M+H]+) 137.7 Å²; ([M+Na]+) 139.4 Å²; ([M-H]-) 135.4 Å².
As to `NC(CS(=O)(=O)O)C(=O)O` (stereo not given) [CYSTEATE], the “collision cross section (N2)” value reads like this: ([M+H]+) 140.2 Å²; ([M+Na-2H]-) 131.4 Å²; ([M+Na]+) 148.2 Å²; ([M-H]-) 123 Å².
As for `Nc1ccn(C2O[C@H](CO)[C@H]3OP(=O)(O)O[C@@H]23)c(=O)n1` (stereo not given in full) [CYTIDINE 2',3'-CYCLIC PHOSPHATE], the “collision cross section (N2)” value is, setting by setting: ([M+H2O-H]-) 167.1 Å²; ([M+H]+) 163.3 Å²; ([M+K]+) 168 Å²; ([M+Na-2H]-) 165 Å²; ([M+Na]+) 167.4 Å²; ([M-H]-) 164.5 Å².
Regarding `NCCC[C@@H](N)C(=O)O` [D-ORNITHINE], the “collision cross section (N2)” value stood at 128.1 Å² ([M+H]+) and 128.3 Å² ([M-H]-).
On to `O=P(O)(O)OC[C@H]1OC(O)[C@H](O)[C@@H]1O` (stereo partly drawn) [D-RIBOSE 5-PHOSPHATE], for which the “collision cross section (N2)” value is, setting by setting: ([M+Na]+) 150.5 Å²; ([M-H]-) 139.4 Å².
On to `C[C@H](CCC(=O)O)[C@H]1CC[C@H]2[C@@H]3CC[C@@H]4C[C@H](O)CC[C@]4(C)[C@H]3C[C@H](O)[C@]12C` [DEOXYCHOLATE], for which, for the setting “[M-H]-”, the “collision cross section (N2)” value is 202.2 Å² and 202.3 Å².
For the compound `Nc1ccn([C@H]2C[C@H](O)[C@@H](CO)O2)c(=O)n1` [DEOXYCYTIDINE], the “collision cross section (N2)” value came to 158.5 Å² ([M+K]+), 155.2 Å² ([M+Na]+) and 148.7 Å² ([M-H]-).
For `Nc1nc(=O)c2ncn([C@H]3C[C@H](O)[C@@H](COP(=O)(O)OP(=O)(O)OP(=O)(O)O)O3)c2[nH]1` [DGTP], the “collision cross section (N2)” value is 182.7 Å² ([M+Na-2H]-) and 191.4 Å² ([M-H]-).
